In one experiment the test system is Myeloperoxidase (MPO). As to the kind of experiment: Myeloperoxidase ELISA in supernatant of Mutz-3 cells. Particulars: FIG. 4. The format is cell-based, human. The text has this:
(§1) As an alternative approach to find predictive markers for sensitizing potential we explored the potential of cell culture supernatants as a source of markers for chemical safety by adopting a more targeted approach using commercially available immunoassays to measure the levels of three known inflammatory markers. The three proteins to be measured by ELISA were selected on the basis of a review of literature references to secreted inflammatory protein response to chemical sensitizer. Cells were cultured as described in Example 1 and the spent medium removed for direct analysis by ELISA. All kits were used in accordance with manufacturer's instructions.
MPO is a peroxidase enzyme which is stored in lysosomes and released during inflammation Myeloperoxidase was measured by ELISA (Assay-Designs) (FIG. 4).
In general terms: An ELISA detects its analyte on a solid surface through an enzyme-linked reagent.

For a further experiment, the system named is MUTZ-3 cells. As to the kind of experiment: PLS score plot of proteomic response, fourth study. Particulars: FIG. 3, ANOVA filtered protein list. The format is cell-based, human. The procedure:
In the fourth study (40-002—8) Mutz-3 cells were incubated with 2 contact sensitizer (120 μM cinnamic aldehyde, 4 μM DNCB), 1 respiratory sensitizer (150 μM TMA), 1 irritant (200 μM SDS) and 1 controls (untreated).
A preferred method for classification of chemicals is employing partial least squares regression analysis (PLS). PLS discriminant analysis identifies the most important classifiers from the list of interest. A model was built using the response variables (y) highlighted in red and the ANOVA filtered proteins as predictors (x). The first PLS components (x-axis) was plotted against the second PLS component (y-axis) and separated the biomarkers having a role in classifying the three experimental groups “control”, “irritant” and sensitizer”.
In the score plot each point represents one 1 sample. Based on the ANOVA filtered protein list samples a good separation between control, sensitizer and irritant treated samples was achieved.

The next experiment deals with dendritic cell lines. Particulars: Mitjans et al. 2009; cited from earlier work.
The subject of experiment [1] is Calprotectin (S100A8/S100A9). Briefly: Calprotectin immunoassay in supernatant of Mutz-3 cells. The format is cell-based, human. Particulars: FIG. 5.
Description: as §1
Calprotectin is heterodimer of S100A8/S100A9 was measured in supernatant of Mutz-3 cells by a commercially available immunoassay (Immundiagnostik AG, Bensheim, Germany) (FIG. 5). Calprotectin is actively secreted by phagocytes in response to stress and binds to Toll-like receptor 4 (TLR4). Toll-like receptors play an important role in the innate immune system and activation of TLR4 by calprotectin further amplifies inflammation (Ehrchen et al. 2009). TLR4 and interleukin 12 double knock-out mice, show a marked decrease of DC-sensitization by a broad range of different sensitizers including 2,4,6-trinitro-1-chlorobenzene (TNCB), oxazolone, and fluorescein isothiocyanate (Martin et al. 2008). […]

The text below walks through data of US20140220566A1, “MATERIALS AND METHODS FOR DETERMINING SENSITIVITY POTENTIAL OF COMPOUNDS” (ELECTROPHORETICS LIMITED, priority 2011, published 2014).

Consider `O=C(O)c1ccc2c(c1)C(=O)OC2=O` [TMA, Trimellitic anhydride], for which the “MPO release into supernatant of Mutz-3 cells” value in the experiment on Myeloperoxidase (MPO) is listed as “does not activate this pathway”. Moreover, the “relative distance of treated samples from control in PLS score plot” value with MUTZ-3 cells is reported as “smaller distance to control sample”. The “response of the IL-8 assay” value in the experiment with dendritic cell lines was “fails to respond”.
As to `O=[N+]([O-])c1ccc(Cl)c([N+](=O)[O-])c1` [DNCB, 1-chloro-2,4-dinitrobenzene], the “MPO release into supernatant of Mutz-3 cells” value in the experiment with Myeloperoxidase (MPO) was “activates an inflammatory pathway involving release of the peroxidase enzyme MPO”. For the same compound, the “S100A8/S100A9 (calprotectin) levels in supernatant of Mutz-3 cells” value in experiment [1] was “modulated”. For the same compound, the “relative distance of treated samples from control in PLS score plot” value in the experiment on MUTZ-3 cells was “greatest relative distance from the control”.
